Results as given in patent US9066947B2, “Indolyl-substituted pyrazino[1,2-b]isoquinolines for cancer treatment” (Everest Biosciences, Inc., priority 2009, dated 2015).

Key:
VEGF = assay: Immunohistochemical analysis of VEGF expression in PC-3 xenograft tumors; type: in vivo, human; settings: versus Control mice (FIG. 5)
Method: (§1) FIG. 5: Effect of Substance X on Expression of VEGF and VEGF Receptor 2 Immunohistochemical analysis of VEGF and VEGF receptor 2 was performed in tumors from the Control mice and the mice treated with Substance X. The representative pictures are shown. Tumor sections (Control) or (Substance X) were stained with antibody against human VEGF and VEGF Receptor 2.
(§2) The treatment of the compound of Example 1 (also referred to herein as “Substance X”) or PBS containing 5% DMSO (vehicle) as Control was started when tumors reached the desired size as described above. In the first experimental setting, Substance X was administered intravenously once every other day. […] Tumor growth was assessed periodically as described in Results. […] The sections were stained with hematoxylineosin (H&E) or imunohistochemical stained with antibodies and analyzed under an optical microscope. […]
(§3) Immunohistochemistry on tumor tissues was performed as previously described (Wegiel B, Bjartell A, Ekberg J, Gadaleanu V, Brunhoff C and Persson J L: A role for cyan AI in mediating the autocrine expression of vascular endothelial growth factor in prostate cancer. Oncogene 24: 6385-6393, 2005) by using antibodies to human CD-31 (Dako, Goistrup, Denmark A/S). […] For analysis of tumor angiogenesis, tumor sections stained with antibody against CD3I were examined and quantified. […]

[1] = Basic toxicity study in healthy mice; type: in vivo; settings: for cage-side observations (food consumption, daily activities, toxic effect) / histology of livers and kidney: 13 days
Method: (§4) For the assessment of toxicity of Substance X, healthy mice were treated with Substance X by intravenous injection at a dose of 100 mg/kg or 200 mg/kg once every other day for 13 days. Body weight of each mouse was measured periodically from Day 1 to Day 13 of the treatment. Cage-side observations including: mortality, moribundity, food consumption and activities were performed once every other day. Blood samples were taken on Day 1 and Day 13 for measurement of blood cell counts. To assess toxicity of Substance X on mice with tumors, mice bearing subcutaneous PC-3 tumors were treated with Substance X at a high dose of 200 mg/kg once every other day for 19 days. Body weight was measured and cage-side observations were performed once every other day. Lymph node, liver, lung, spleen and femurs were removed from each mouse and were examined. Toxicity of Substance X was also assessed in tumor-bearing mice treated with 80 mg/kg of Substance X daily as described above.

[2] = Safety in PC-3 tumor-bearing xenograft mice; type: in vivo; settings: PC-3 tumor-bearing mice, 40 mg/kg daily for 30 days
Method: as §4
We then tested the high dose of Substance X in PC-3 xenograft mice, thereby mimicking its effect on prostate cancer patients. We generated mouse xenograft of human PC-3 tumors by subcutaneous implantation of tumor cells into nude mice. We further tested safety of the dose of 40 mg/kg which generated significant anti-tumor activity in the xenograft mouse model.

VEGF receptor 2 = assay: Immunohistochemical analysis of VEGF receptor 2 expression in PC-3 xenograft tumors; type: in vivo, human; settings: versus Control mice (FIG. 5)
Method: as §1, §2, §3

CD31 = assay: Quantification of angiogenesis by CD31 immunohistochemistry in PC-3 xenograft tumors; type: in vivo, human; settings: versus Control tumors (FIG. 6)
Method: B. Immunohistochemical analysis of tumors from the Control mice and mice treated with Substance X for the expression of CD31. Tumor sections (Control) or (Substance X) were stained with antibody against CD31. (B). Regions of high vascular density at centre or the edge areas within the tumors were examined. The number of CD31-positive pixels per microscopic field was recorded. At least two sections per tumor and three views per section were determined. The statistical T-test was performed and was two-sided and P value less than 0.05 was considered to be statistically significant, P value less than 0.01 is labelled as two asterisks.
Immunohistochemistry on tumor tissues was performed as previously described (Wegiel B, Bjartell A, Ekberg J, Gadaleanu V, Brunhoff C and Persson J L: A role for cyan AI in mediating the autocrine expression of vascular endothelial growth factor in prostate cancer. Oncogene 24: 6385-6393, 2005) by using antibodies to human CD-31 (Dako, Goistrup, Denmark A/S). Antirabbit peroxidase-conjugated secondary antibodies were applied. Diaminobenzidine colorimetric reagent solution (Dako) was used. […] For analysis of tumor angiogenesis, tumor sections stained with antibody against CD3I were examined and quantified. […] The number of CD31-positive pixels per microscopic field was recorded. At least two sections per tumor and three views per section were determined.

PC-3 tumors [3] = assay: PC-3 prostate cancer xenograft mouse model of tumor growth and metastasis; type: in vivo, athymic NMRI nude mice
Text: Athymic NMRI nude mice between 6-8 weeks old (Taconic; Bomholt, Denmark) were used. Prostate cancer xenograft mouse model was created by implanting hormone-independent PC3 tumor cells subcutaneously into athymic nude mice as previously described (Wegiel B, Bjartell A, Tuomela J, et al.: Multiple cellular mechanisms related to cyclin Al in prostate cancer invasion and metastasis. Journal of the National Cancer Institute 100: 10221036, 2008).
PC-3 cells were purchased from American Type Culture Collection (Manassas, V A) and cultured in RPMI-1640 supplemented with 10% Fetal Bovine Serum. PC-3 cells at 1×10^6/per mouse were used. The mice were divided into three groups (6 mice per group). The first group allowed tumors to grow between 170-400 mm^3 in size before starting the treatment. The second group allowed tumors to grow between 550-650 mm^3 in size before starting the treatment. The third group allowed tumors to grow between 700-800 mm^3 in size before starting the treatment. The tumor diameters were measured twice weekly using calipers. The tumor volumes were calculated using an equation of a*(b2/2) where a and b represent the length and width of the tumor, respectively.
The treatment of the compound of Example 1 (also referred to herein as “Substance X”) or PBS containing 5% DMSO (vehicle) as Control was started when tumors reached the desired size as described above. In the first experimental setting, Substance X was administered intravenously once every other day. In the second experimental setting, Substance X was administrated orally once every other day. Tumor growth was assessed periodically as described in Results. The mice were sacrificed after treatment by euthanization via isofluorene inhalation. Lymph node, liver, lung, spleen and femurs were removed from each mouse. Half of the tumor tissues were used for histology and immunohistochemical analysis. For histology analysis, tissues were fixed in 4% paraformaldehyde and embedded in paraffin. The sections were stained with hematoxylineosin (H&E) or imunohistochemical stained with antibodies and analyzed under an optical microscope. The other half of the tissues were used for protein analysis and thus were snapfrozen in liquid nitrogen. The body weights of the mice on the first and last day of the treatment were collected and compared. Tumor invasion and metastasis were examined in various tissues from the sacrificed mice.
For a comparison study, mice with tumors at 190-250 mm^3 in size were treated with the cytotoxic drug Etoposide (Sigma) at a dose of 20 mg/kg via IV injection once every other day. The tumor size was measured as described in the Results. Three mice were treated with Etoposide or the vehicle as Control. The mice were sacrificed and the tissues were collected as described above.

PC-3 tumors [4] = assay: as above; type: in vivo, athymic NMRI nude mice; settings: tumors 500-600 mm3 at start, 40 mg/kg intravenous injection, day 20 (FIG. 2)
[5] = system: PC-3 prostate cancer cells; assay: Cell proliferation assay (trypan blue viable cell count) and IC50 determination; type: cell-based, human; settings: PC-3 cells
Method: All new synthesized compounds and Etoposide were first dissolved in 100% DMSO at initial concentration of 100 mM, and then diluted at final concentration of 200 uM in culture medium. Commercial form of Avastin (25 mg/ml) was diluted to appropriate concentrations in culture medium.
Hormone-independent and metastatic PC-3 prostate cancer cells were purchased from the American Type Culture Collection (Manassas, Va., USA) and cultured in RPMI-1640 supplemented with 10% fetal bovine serum. Etoposide was purchased from Sigma, Avastin from Roche.
For cell counting a total of 6×10^4 cells at a density of 0.3×10^6/ml were seeded in 96-well plate. The cells were treated with compounds, Etoposide or Avastin as positive controls at 1 uM, 5 uM, 10 uM, 20 uM, 50 uM, 100 uM for 48 hours. For Avastin 5 uM, 20 uM and 50 uM concentrations were used. The cells were labeled with trypan blue and the viable cells were quantified.

[6] = healthy mice, 100 mg/kg i.v. once every other day

CN1CC(=O)N2[C@H](c3c[nH]c4ccccc34)c3cc4c(cc3C[C@H]2C1=O)OCO4 [Substance X, (5S,9aS)-5-(1H-Indol-3-yl)-8-methyl-7,8,9a,10-tetrahydro-5H-1,3-dioxa-5a,8-diaza-cyclopenta[b]anthracene-6,9-dione]
expression of VEGF in tumors (VEGF): significantly down-regulated
cage-side observations (food consumption, daily activities, toxic effect) ([1]; 200 mg/kg once every other day): no abnormality on food consumption and daily activities, or any observable toxic effect
histology of livers and kidney ([1]; 200 mg/kg once every other day): no abnormality in histology
body weights ([1]; 200 mg/kg once every other day, 13 days (FIG. 1B)): steady throughout the study period
cage-side observations (food consumption, daily activities, toxic effect) [1, 6]: no abnormality on food consumption and daily activities, or any observable toxic effect
histology of livers and kidney [1, 6]: no abnormality in histology
change in body weight ([1]; healthy mice, 100 mg/kg i.v. once every other day, 13 days (FIG. 1A)): no significant change in body weight
body weights [2]: remained constant throughout the period of treatment
cage-side observations (food consumption, daily activities, toxic effect) [2]: no abnormality on food consumption and/or daily activities, or any other observable toxic effect
histology of livers and kidney [2]: no abnormality in histology
expression of VEGFR2 in tumors (VEGF receptor 2): significantly down-regulated
CD31 expression and number of CD31-expressing vessels in tumors (CD31): statistically significant decrease
tumor size after switch to oral administration (PC-3 tumors [3]; 40 mg/kg i.v. for 20 days, from day 21 40 mg/kg oral, versus continuous i.v.): slightly larger tumor size than the mice treated by continuous intravenous injection
tumor growth (large and invasive tumors, longer treatment) (PC-3 tumors [3]; 40 mg/kg intravenous injection for 30 days): inhibited throughout the treatment period and the tumors shrank significantly at the end of the treatment
infiltration of tumor cells into secondary sites (metastasis) (PC-3 tumors [3]; 40 mg/kg, end of study, histology and immunohistochemical analysis): no infiltration of tumor cells into secondary sites could be detected
size of tumors in whole-tumor histology sections (PC-3 tumors [3]; VEGF receptor 2 stained sections, versus Control mice (FIG. 6A)): smaller than that from the Control mice
oral bioavailability (PC-3 tumors [3]; inferred from tumor size after oral versus intravenous 40 mg/kg): orally bioavailable, yet the oral bioavailability is lower than intravenous injection
tumor growth (PC-3 tumors [3]; tumors 190-240 mm3 at start, 20 mg/kg intravenously, 21 days): tumor shrank
tumor growth, oral administration throughout (PC-3 tumors [3]; tumors 300-350 mm3 at start, 40 mg/kg oral (FIG. 3)): able to inhibit the tumor growth, although the effect was not as strong as intravenous injection
tumor growth, comparison of Etoposide and Substance X (PC-3 tumors [3]; tumors about 250 mm3, IV once every other day for 14 days, Etoposide 20 mg/kg, Substance X 40 mg/kg (FIG. 4)): stronger inhibitory effect on tumors as compared to Etoposide
tumor growth (large tumors) (PC-3 tumors [4]): did not grow but showed a slight decrease in size
IC50 ([5]; Homo sapiens, viable cells after 48 hours, read-out: IC50 for cell growth inhibition): 30 µM
concentration from which statistically significant cell growth inhibition started ([5]; 48 hours): 5 µM
